Results on six molecules are retold here after US20180289620A1, “NANOPARTICLE FORMULATIONS AND USES THEREOF” (Abraxis BioScience, LLC, priority 2008, published 2018).

Series [1] relates to MX-1 (human breast carcinoma) cells. The experiment in a line: In vitro growth inhibition (cytotoxicity, CellTiter Blue Cell Viability Assay). In kind it is cell-based. The conditions noted are these: cells exposed 72 hr. As for the experimental part:
A cytotoxicity assay was quantitated using the Promega CellTiter Blue Cell Viability Assay. Briefly, cells (5000 cells/well) were plated onto 96-well microtiter plates in RPMI 1640 medium supplemented with 10% FBS and incubated at 37° C. in a humidified 5% CO2 atmosphere. After 24 hr., cells were exposed to various concentrations of hydrophobic taxane derivative in DMSO and cultured for another 72 hr, 100 uL of media were removed and 20 uL of Promega CellTiter Blue reagent were added to each well and shaken to mix. After 4 hours of incubation at 37° C. in a humidified 5% CO2 atmosphere, the plates were read at 544 ex/620 em. The fluorescence produced is proportional to the number of viable cells. After plotting fluorescence produced against drug concentration, the IC50 was calculated as the […] of the resulting non-linear regression.
A general note: The colour change of resazurin is a common sign of viable cells or microbes.

The nature of series [2]: Log P of hydrophobic taxane derivatives. In kind it is physicochemical. The conditions noted are these: method not stated.
A short description of series [3]: Pharmacokinetics of Nab-2 in monkeys. It counts as in vivo. As to conditions: cynomolgus monkey; for AUCINF/D / Cmax/D / HL_Lambda_z / AUC(0-inf) / Cmax / Tmax / concentration at 0 hr / concentration at […] / concentration at 0.25 hr / concentration at 0.5 hr / concentration at 1 hr / concentration at 2 hr / concentration at 8 hr: label = analyte; for clearance / AUC(0-inf) / Cmax / Tmax / concentration at 0 hr / concentration at […] / concentration at 0.25 hr / concentration at 0.5 hr / concentration at 1 hr / concentration at 2 hr / concentration at 8 hr / Vd: male, blood; for concentration at […]: time 0.083 hr; for Vd: iv. The source says:
The day of the initial dose administration was designated Study Day 1, with subsequent days consecutively numbered. Days on study prior to the initial dose administration were consecutively numbered with the final day of acclimation referenced as day −1.
Three non-naïve, male cynomolgus monkeys, confirmed to have no prior exposure to albumin, were assigned to dose groups as specified in Table 6 shown below. Animals weighed 5.4-6.7 kg and were 4 to 7 years of age at study initiation.
All animals were dosed once weekly, on days 1, 8 and 15. Animals in Groups 3 and 4 were administered Nab-2 (lot: ABI139-2-83) at 5 and 10 mg/kg, respectively, and the Group 5 animal was administered Nab-2 at 20, 10 and 10 mg/kg (on days 1, 8 and 15, respectively) via 30 minute intravenous infusion. Clinical observations were performed twice daily and body weights were recorded weekly throughout the study.

Structures are written as SMILES. Where two headings read alike, the source gives them in different places.

In series [1], `CCCCC(=O)O[C@@H](C(=O)O[C@H]1C[C@@]2(O)[C@@H](OC(=O)c3ccccc3)C3[C@](C)(C(=O)[C@H](O)C(=C1C)C2(C)C)[C@@H](O)C[C@H]1OC[C@@]31OC(C)=O)[C@@H](NC(=O)OC(C)(C)C)c1ccccc1` (stereo partly drawn) [Compound 4, 2′-Valeryl-Docetaxel] showed an IC50 of 211 µM. Moreover, in series [2], the logP is 6.37.
Molecule `CCCCCCCCCC(=O)O[C@@H](C(=O)O[C@H]1C[C@@]2(O)[C@@H](OC(=O)c3ccccc3)C3[C@](C)(C(=O)[C@H](O)C(=C1C)C2(C)C)[C@@H](O)C[C@H]1OC[C@@]31OC(C)=O)[C@@H](NC(=O)OC(C)(C)C)c1ccccc1` (stereo partly drawn) [Compound 3, 2′-Decanoyl-Docetaxel] gave an IC50 in series [1] of 8.8 µM.
`CCC(=O)O[C@@H](C(=O)O[C@H]1C[C@@]2(O)[C@@H](OC(=O)c3ccccc3)C3[C@](C)(C(=O)[C@H](O)C(=C1C)C2(C)C)[C@@H](O)C[C@H]1OC[C@@]31OC(C)=O)[C@@H](NC(=O)OC(C)(C)C)c1ccccc1` (stereo partly drawn) [Compound 5, 2′-Propionyl-Docetaxel]: the IC50 in series [1] stood at 209 µM. In series [2], this molecule showed a logP of 5.31.
In series [1], `CCCCCC(=O)O[C@@H](C(=O)O[C@H]1C[C@@]2(O)[C@@H](OC(=O)c3ccccc3)C3[C@](C)(C(=O)[C@H](O)C(=C1C)C2(C)C)[C@@H](O)C[C@H]1OC[C@@]31OC(C)=O)[C@@H](NC(=O)OC(C)(C)C)c1ccccc1` (stereo partly drawn) [Compound 2, 2′-Hexanoyl Docetaxel] showed an IC50 of 103 µM. In addition, the lipophilicity (logP) in series [2] was 6.44. Further, in series [3] (Nab-2 IV 5 mg/kg), the AUCINF/D amounted to 723 kg·ng·h/mL/mg, the Cmax/D was found to be 215 kg·ng/mL/mg, the HL_Lambda_z was 3.6 h and the clearance was 23.1 mL/min/kg. In series [3] (Nab-2 IV 5 mg/kg), the AUC(0-inf) is 3610 ng·h/mL, the Cmax was 1070 ng/mL, the Tmax is 4.98 min and the concentration at 0 hr came to 0 ng/mL. In series [3] (Nab-2 IV 5 mg/kg), this molecule displayed a concentration at […] of 1070 ng/mL, a concentration at 0.25 hr of 940 ng/mL, a concentration at 0.5 hr of 774 ng/mL and a concentration at 1 hr of 534 ng/mL. In series [3] (Nab-2 IV 5 mg/kg), this molecule yielded a concentration at 2 hr of 422 ng/mL and a concentration at 8 hr of 136 ng/mL. In series [3] (Nab-2 IV 10 mg/kg), this molecule gave an AUCINF/D of 535 kg·ng·h/mL/mg, a Cmax/D of 155 kg·ng/mL/mg, an HL_Lambda_z of 3.7 h and a clearance of 31.2 mL/min/kg. In series [3] (Nab-2 IV 10 mg/kg), the AUC(0-inf) was 5350 ng·h/mL, the Cmax is 1550 ng/mL, the Tmax turned out to be 4.98 min and the concentration at 0 hr worked out at 0 ng/mL. For the same molecule, in series [3] (Nab-2 IV 10 mg/kg), the concentration at […] turned out to be 1550 ng/mL, the concentration at 0.25 hr was determined as 1300 ng/mL, the concentration at 0.5 hr was found to be 936 ng/mL and the concentration at 1 hr was determined as 734 ng/mL. In series [3] (Nab-2 IV 10 mg/kg), this molecule gave a concentration at 2 hr of 657 ng/mL and a concentration at 8 hr of 202 ng/mL. In series [3] (Nab-2 IV 20 mg/kg), the AUCINF/D was found to be 393 kg·ng·h/mL/mg, the Cmax/D stood at 131 kg·ng/mL/mg, the HL_Lambda_z was 3.0 h and the clearance is 42.4 mL/min/kg. Moreover, in series [3] (Nab-2 IV 20 mg/kg), the AUC(0-inf) came to 7860 ng·h/mL, the peak level (Cmax) was 2620 ng/mL, the Tmax was determined as 15 min and the concentration at 0 hr worked out at 0 ng/mL. Also, in series [3] (Nab-2 IV 20 mg/kg), the concentration at […] is 2390 ng/mL, the concentration at 0.25 hr was 2620 ng/mL, the concentration at 0.5 hr came out at 1820 ng/mL and the concentration at 1 hr came to 1370 ng/mL. Also, in series [3] (Nab-2 IV 20 mg/kg), the concentration at 2 hr is 958 ng/mL and the concentration at 8 hr was found to be 264 ng/mL. Further, in series [3] (5 mg/kg, Nab-2 IV 5 mg/kg, read-out: Vss), the Vd is 5.84 L/kg. For the same molecule, the Vd in series [3] (5 mg/kg, Nab-2 IV 5 mg/kg, read-out: Vz) turned out to be 7.18 L/kg. Also, in series [3] (10 mg/kg, Nab-2 IV 10 mg/kg, read-out: Vss), the Vd came to 8.12 L/kg. Moreover, the Vd in series [3] (10 mg/kg, Nab-2 IV 10 mg/kg, read-out: Vz) turned out to be 9.93 L/kg. For the same molecule, the Vd in series [3] (20 mg/kg, Nab-2 IV 20 mg/kg, read-out: Vss) amounted to 8.74 L/kg. For the same molecule, the Vd in series [3] (20 mg/kg, Nab-2 IV 20 mg/kg, read-out: Vz) worked out at 11.2 L/kg. Also, the Vd in series [3] (Nab-2 IV 5-20 mg/kg, read-out: volume of distribution Vz) lay within 7 to 11 L/kg.
Turning to `CC(=O)O[C@@]12CO[C@@H]1C[C@H](O)[C@@]1(C)C(=O)[C@H](O)C3=C(C)[C@@H](OC(=O)[C@H](OC(=O)c4ccccc4)[C@@H](NC(=O)OC(C)(C)C)c4ccccc4)C[C@@](O)([C@@H](OC(=O)c4ccccc4)C12)C3(C)C` (stereo partly drawn) [Compound 1, 2′-Benzoyl-Docetaxel], half-maximal inhibition in series [1] (IC50) was put at 38.4 µM. In addition, the logP in series [2] came out at 6.67.
With `CC(=O)O[C@@]12CO[C@@H]1C[C@H](O)[C@@]1(C)C(=O)[C@H](O)C3=C(C)[C@@H](OC(=O)[C@H](O)[C@@H](NC(=O)OC(C)(C)C)c4ccccc4)C[C@@](O)([C@@H](OC(=O)c4ccccc4)C12)C3(C)C` (stereo partly drawn) [Docetaxel, docetaxel, reference compound], in series [2], the “Log P” value was 4.20. In series [3] (Nab-2 IV 5 mg/kg), this molecule yielded an AUCINF/D of 35 kg·ng·h/mL/mg, a Cmax/D of 8 kg·ng/mL/mg, an HL_Lambda_z of 1.4 h and an AUC(0-inf) of 175 ng·h/mL. Besides, in series [3] (Nab-2 IV 5 mg/kg), the highest concentration (Cmax) worked out at 41 ng/mL, the Tmax turned out to be 15 min, the concentration at 0 hr was determined as 0 ng/mL and the concentration at […] worked out at 36.7 ng/mL. In addition, in series [3] (Nab-2 IV 5 mg/kg), the concentration at 0.25 hr turned out to be 40.7 ng/mL, the concentration at 0.5 hr stood at 35.5 ng/mL, the concentration at 1 hr worked out at 32.1 ng/mL and the concentration at 2 hr was found to be 34.1 ng/mL. This molecule also returned a concentration at 8 hr in series [3] (Nab-2 IV 5 mg/kg) of 1.15 ng/mL. In series [3] (Nab-2 IV 10 mg/kg), the AUCINF/D amounted to 31 kg·ng·h/mL/mg, the Cmax/D was determined as 10 kg·ng/mL/mg, the HL_Lambda_z came to 3.2 h and the AUC(0-inf) was 314 ng·h/mL. In series [3] (Nab-2 IV 10 mg/kg), the maximum concentration (Cmax) was 99 ng/mL, the concentration at 0 hr came to 0 ng/mL, the concentration at […] came out at 99.4 ng/mL and the concentration at 0.25 hr stood at 70.1 ng/mL. In series [3] (Nab-2 IV 10 mg/kg), this molecule returned a concentration at 0.5 hr of 63.4 ng/mL, a concentration at 1 hr of 47.5 ng/mL, a concentration at 2 hr of 44.2 ng/mL and a concentration at 8 hr of 0 ng/mL. In series [3] (Nab-2 IV 20 mg/kg), this molecule displayed an AUCINF/D of 20 kg·ng·h/mL/mg, a Cmax/D of 19 kg·ng/mL/mg, an HL_Lambda_z of 1.4 h and an AUC(0-inf) of 394 ng·h/mL. Besides, in series [3] (Nab-2 IV 20 mg/kg), the peak concentration (Cmax) turned out to be 382 ng/mL, the concentration at 0 hr was determined as 0 ng/mL, the concentration at […] is 382 ng/mL and the concentration at 0.25 hr turned out to be 232 ng/mL. In series [3] (Nab-2 IV 20 mg/kg), this molecule came in with a concentration at 0.5 hr of 157 ng/mL, a concentration at 1 hr of 90.5 ng/mL, a concentration at 2 hr of 69.2 ng/mL and a concentration at 8 hr of 0 ng/mL.

As usually defined, the IC50 is the concentration that gives 50% inhibition. A word on the logP: it is a log measure of how a compound divides between an organic and an aqueous phase. By clearance is commonly meant a measure of how efficiently the substance is removed, as volume per time. As a reminder, the AUC(0-inf) is total exposure, with the tail of the curve extrapolated. As usually defined, the Cmax is the highest concentration seen after dosing. Usually Tmax stands for the time at which the peak concentration occurs. For orientation: Log P means a log measure of how a compound divides between an organic and an aqueous phase.
